In patent publication US9440950B2, “Arginine methyltransferase inhibitors and uses thereof” (Epizyme, Inc., priority 2013, dated 2016) one finds IC50 data, which are given here for 29 compounds.

As a reminder, the IC50 is the concentration that inhibits the measured activity by half. Lower therefore signals higher potency.

A value given as a limit tells only on which side of the number the result lay.

T1 sequence (Q9NR22 whole entry, canonical isoform): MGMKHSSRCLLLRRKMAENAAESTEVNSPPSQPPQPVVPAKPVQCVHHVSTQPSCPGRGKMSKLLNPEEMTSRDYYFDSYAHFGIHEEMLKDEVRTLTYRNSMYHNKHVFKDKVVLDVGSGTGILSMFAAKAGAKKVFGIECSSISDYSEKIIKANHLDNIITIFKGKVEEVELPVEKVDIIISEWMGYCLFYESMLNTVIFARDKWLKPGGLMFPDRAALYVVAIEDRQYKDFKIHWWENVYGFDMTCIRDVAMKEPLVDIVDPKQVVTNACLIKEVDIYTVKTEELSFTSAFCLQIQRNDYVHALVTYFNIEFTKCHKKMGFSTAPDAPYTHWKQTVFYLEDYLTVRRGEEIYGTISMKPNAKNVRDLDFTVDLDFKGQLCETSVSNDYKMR

The test concerns the target T1, human PRMT8 (Homo sapiens, UniProt Q9NR22).
T1 construct: Full-length human PRMT8 (NM_019854.4) isoform 1 transcript clone; made in house
The experiment in a line: PRMT8 Biochemical Assay. Particulars: peptide substrate, 3H-SAM Flashplate assay. The text has this:
S-adenosylmethionine (SAM), S-adenosylhomocysteine (SAH), bicine, Tween20, dimethylsulfoxide (DMSO), bovine skin gelatin (BSG), isopropyl-P3-D-thiogalactopyranoside (IPTG), and Tris(2-carboxyethyl)phosphine hydrochloride solution (TCEP) were purchased from Sigma-Aldrich at the highest level of purity possible. ^3H-SAM was purchase from American Radiolabeled Chemicals with a specific activity of 80 Ci/mmol. 384-well streptavidin Flashplates were purchased from PerkinElmer.
Peptide representative of human histone H4 residues 31-45 was synthesized with an N-terminal linker-affinity tag motif and a C-terminal amide cap by 21st Century Biochemicals. The peptide was purified by high-performance liquid chromatography (HPLC) to greater than 95% purity and confirmed by liquid chromatography mass spectrometry (LC-MS). The sequence was Biot-Ahx-[…]-amide (SEQ ID NO.:8).
The resulting construct encodes an N-terminal GST tag and a thrombin cleavage sequence ([…] […] […] […]) (SEQ ID NO.:9) fused directly to Met 1 of PRMT8.
E. coli (BL21(DE3) Gold, Stratagene) made competent by the CaCl2 method were transformed with the PRMT8 construct and ampicillin selection. Protein over-expression was accomplished by growing the PRMT8 expressing E. coli clone and inducing expression with 0.3 mM IPTG at 16° C. The culture was grown for 12 hours, harvested by centrifugation, and stored at −80° C. for purification.
The column was washed with 50 mM phosphate buffer, 100 mM NaCl, 5% glycerol, 5 mM β-mercaptoethanol, pH 7.8 and PRMT8 was eluted by 100 mM phosphate in the same buffer. Protein was concentrated and buffer was exchanged to 50 mM Tris, 300 mM NaCl, 10% glycerol, 5 mM β-mercaptoethanol, pH 7.8 by ultrafiltration. The purity of recovered protein was 89%.
General Procedure for PRMT8 Enzyme Assays on Peptide Substrates.
The assays were all performed in a buffer consisting of 20 mM Bicine (pH=7.6), 1 mM TCEP, 0.005% BSG, and 0.002% Tween 20, prepared on the day of use. Compounds in 100% DMSO (1 ul) were spotted into a polypropylene 384-well V-bottom plates (Greiner) using a Platemate Plus outfitted with a 384-channel head (Thermo Scientific). DMSO (1 ul) was added to Columns 11, 12, 23, 24, rows A-H for the maximum signal control and 1 ul of SAH, a known product and inhibitor of PRMT8, was added to columns 11, 12, 23, 24, rows I-P for the minimum signal control. A cocktail (40 ul) containing the PRMT8 enzyme was added by Multidrop Combi (Thermo-Fisher). The compounds were allowed to incubate with PRMT8 for 30 min at room temperature, then a cocktail (10 ul) containing ^3H-SAM and peptide was added to initiate the reaction (final volume=51 ul). The final concentrations of the components were as follows: PRMT8 was 1.5 nM, ^3H-SAM was 50 nM, non-radiolabeled SAM was 550 nM, peptide was 150 nM, SAH in the minimum signal control wells was 1 mM, and the DMSO concentration was 2%. The assays were stopped by the addition of non-radiolabeled SAM (10 ul) to a final concentration of 400 uM, which dilutes the ^3H-SAM to a level where its incorporation into the peptide substrate is no longer detectable. 50 ul of the reaction in the 384-well polypropylene plate was then transferred to a 384-well Flashplate and the biotinylated peptides were allowed to bind to the streptavidin surface for at least 1 hour before being washed once with 0.1% Tween20 in a Biotek ELx405 plate washer. The plates were then read in a PerkinElmer TopCount plate reader to measure the quantity of ^3H-labeled peptide bound to the Flashplate surface, measured as disintegrations per minute (dpm) or alternatively, referred to as counts per minute (cpm).
Where dpm=disintegrations per minute, cmpd=signal in assay well, and min and max are the respective minimum and maximum signal controls.
Where top and bottom are the normally allowed to float, but may be fixed at 100 or 0 respectively in a 3-parameter fit. […]
Turning to `CNCCN(C)Cc1c[nH]nc1-c1cccnc1` [Compound 1], the IC50 was in the range of 1.01 to 3 µM.
On to `CNCCN(C)Cc1c[nH]nc1-c1ccc(O)nc1` [Compound 2], for which the IC50 was ≥ 10 µM.
Next, `CNCCN(C)Cc1c[nH]nc1-c1ccc(N)nc1` [Compound 3]: 3.01 to 10 µM.
As for `CN(CCN)Cc1c[nH]nc1-c1cncc(S(C)(=O)=O)c1` [Compound 4], the concentration for half-maximal inhibition (IC50) was ≥ 10 µM.
Then `COc1ccc(-c2n[nH]cc2CN(C)CCN)cn1` [Compound 5], with 1.01 to 3 µM; and `Cc1cncc(-c2n[nH]cc2CN(C)CCN)c1` [Compound 6], with 1.01 to 3 µM; and `CN(CCN)Cc1c[nH]nc1-c1cncc(F)c1` [Compound 7], with 1.01 to 3 µM.
Next, `CN(CCN)Cc1c[nH]nc1-c1cccnc1` [Compound 8]: 1.01 to 3 µM; `CN(CCN)Cc1c[nH]nc1-c1ccncc1` [Compound 9]: 0.101 to 1 µM; `Cc1cc(-c2n[nH]cc2CN(C)CCN)cnc1Cl` [Compound 10]: 0.101 to 1 µM.
Next, `COc1cc(-c2n[nH]cc2CN(C)CCN)ccn1` [Compound 11]: 1.01 to 3 µM; `COc1cc(-c2n[nH]cc2CN(C)CCN)c(Cl)cn1` [Compound 12]: 3.01 to 10 µM.
`CN(CCN)Cc1c[nH]nc1-c1ccc(C(F)(F)F)nc1` [Compound 13, N^1-methyl-N^1-((3-(6-(trifluoromethyl)pyridin-3-yl)-1H-pyrazol-4-yl)methyl)ethane-1,2-diamine]: the IC50 lay in the range of 0.101 to 1 µM.
Regarding `COc1ncc(Cl)cc1-c1n[nH]cc1CN(C)CCN` [Compound 14], the IC50 lay in the range of 3.01 to 10 µM.
On to `COc1ncccc1-c1n[nH]cc1CN(C)CCN` [Compound 15], for which the IC50 was in the range of 1.01 to 3 µM.
As for `COc1ccncc1-c1n[nH]cc1CN(C)CCN` [Compound 16], the IC50 was in the range of 3.01 to 10 µM.
For `Cc1ccncc1-c1n[nH]cc1CN(C)CCN` [Compound 17], the IC50 fell in the range of 3.01 to 10 µM.
Next, `CN(CCN)Cc1c[nH]nc1-c1cncc(C#N)c1` [Compound 18]: 3.01 to 10 µM.
`CN(CCN)Cc1c[nH]nc1-c1cncc(Cl)c1` [Compound 19]: the 50% inhibitory concentration (IC50) fell in the range of 1.01 to 3 µM.
On to `CN(CCN)Cc1c[nH]nc1-c1ccc(N2CCOCC2)nc1` [Compound 20], for which the concentration for half-maximal inhibition (IC50) lay within 0.101 to 1 µM.
Turning to `CC(C)CN(C)c1ccc(-c2n[nH]cc2CN(C)CCN)cn1` [Compound 21], the IC50 was 1.01 to 3 µM.
The compound `CC(C)Oc1ccc(-c2n[nH]cc2CN(C)CCN)cn1` [Compound 22] displayed an IC50 of 0.101 to 1 µM.
As to `CN(CCN)Cc1c[nH]nc1-c1ccc(N(C)Cc2ccccc2)nc1` [Compound 23], the IC50 fell in the range of 0.101 to 1 µM.
Regarding `CCN(CC)c1ccc(-c2n[nH]cc2CN(C)CCN)cn1` [Compound 24], the IC50 fell in the range of 1.01 to 3 µM.
Turning to `CN(CCN)Cc1c[nH]nc1-c1ccc(NCc2ccccc2)nc1` [Compound 25], the IC50 was in the range of 1.01 to 3 µM.
Then `CC(C)CNc1ccc(-c2n[nH]cc2CN(C)CCN)cn1` [Compound 26], with 1.01 to 3 µM; and `CN(CCN)Cc1c[nH]nc1-c1ccccn1` [Compound 27], with ≥ 10 µM.
In the case of `CN(CCN)Cc1c[nH]nc1-c1ccc(C#N)nc1` [Compound 28, 5-(4-(((2-aminoethyl)(methyl)amino)methyl)-1H-pyrazol-3-yl)picolinonitrile], the 50% inhibitory concentration (IC50) fell in the range of 0.101 to 1 µM.
`CN(CCN)Cc1c[nH]nc1-c1cnccc1C(F)(F)F` [Compound 29]: the IC50 was ≥ 10 µM.
